ChEMBL document CHEMBL1201861, “Genomics of Drug Sensitity in Cancer screening data, Wellcome Trust Sanger Institute”

What was measured:
Assay in all cases: cells
Type in all cases: functional, cell-based
Details in all cases: Homo sapiens
CTB-1 = system: CTB-1
Description: SANGER: Inhibition of human CTB-1 cell growth in a cell viability assay.

SK-UT-1 = system: SK-UT-1;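 note: growth inhibition of SK-UT-1 cells, measured by a cell viability assay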
Description: SANGER: Inhibition of human SK-UT-1 cell growth in a cell viability assay.

BV-173 = system: BV-173
Description: SANGER: Inhibition of human BV-173 cell growth in a cell viability assay.

BB49-HNC = system: BB49-HNC;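 note: cell viability assay read-out, reported as inhibition of BB49-HNC cell growth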
Description: SANGER: Inhibition of human BB49-HNC cell growth in a cell viability assay.

HCC2218 = system: HCC2218;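 note: cell viability assay read-out, with IC50 given as the concentration that inhibits growth of the cell line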
Description: SANGER: Inhibition of human HCC2218 cell growth in a cell viability assay.

K562 = system: K562
Description: SANGER: Inhibition of human K-562 cell growth in a cell viability assay.

COLO-824 = system: COLO-824
Description: SANGER: Inhibition of human COLO-824 cell growth in a cell viability assay.

LXF-289 cell line = system: LXF-289 cell line
Description: SANGER: Inhibition of human LXF-289 cell growth in a cell viability assay.

CW-2 = system: CW-2;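 note: growth inhibition of CW-2 cells, read out by a cell viability assay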
Description: SANGER: Inhibition of human CW-2 cell growth in a cell viability assay.

NCI-H2126 = system: NCI-H2126;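 note: growth inhibition of the cancer cell line, determined with a cell viability readout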
Description: SANGER: Inhibition of human NCI-H2126 cell growth in a cell viability assay.

NCI-H510A = system: NCI-H510A;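 note: growth inhibition of NCI-H510A cells, read out with a cell viability assay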
Description: SANGER: Inhibition of human NCI-H510A cell growth in a cell viability assay.

COLO-829 = system: COLO-829
Description: SANGER: Inhibition of human COLO-829 cell growth in a cell viability assay.

NCI-H226 = system: NCI-H226;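 note: cell viability read-out used to gauge growth inhibition of the cells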
Description: SANGER: Inhibition of human NCI-H226 cell growth in a cell viability assay.

NOS-1 = system: NOS-1;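 note: growth inhibition of the human NOS-1 cell line, read out with a cell viability assay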
Description: SANGER: Inhibition of human NOS-1 cell growth in a cell viability assay.

SW 954 = system: SW 954;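 note: growth inhibition of SW954 human cancer cells, read out as cell viability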
Description: SANGER: Inhibition of human SW954 cell growth in a cell viability assay.

NCI-H1092 = system: NCI-H1092;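 note: cell growth inhibition measured with a cell viability assay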
Description: SANGER: Inhibition of human NCI-H1092 cell growth in a cell viability assay.

MFH-ino = system: MFH-ino;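 note: growth inhibition of human MFH-ino cells, read out by a cell viability assay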
Description: SANGER: Inhibition of human MFH-ino cell growth in a cell viability assay.

TGBC1TKB = system: TGBC1TKB;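 note: growth inhibition of TGBC1TKB cells, read out by a cell viability assay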
Description: SANGER: Inhibition of human TGBC1TKB cell growth in a cell viability assay.

LOX IMVI = system: LOX IMVI
Description: SANGER: Inhibition of human LOXIMVI cell growth in a cell viability assay.

MFM-223 = system: MFM-223
Description: SANGER: Inhibition of human MFM-223 cell growth in a cell viability assay.

SK-MEL-2 = system: SK-MEL-2;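 note: growth inhibition of human SK-MEL-2 cells measured with a cell viability assay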
Description: SANGER: Inhibition of human SK-MEL-2 cell growth in a cell viability assay.

CTV-1 = system: CTV-1;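 note: growth inhibition of the cell line, read out with a cell viability assay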
Description: SANGER: Inhibition of human CTV-1 cell growth in a cell viability assay.

SW684 = system: SW684;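 note: growth inhibition of human SW684 cells, measured by a cell viability assay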
Description: SANGER: Inhibition of human SW684 cell growth in a cell viability assay.

A3-KAW = system: A3-KAW;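 note: growth inhibition of human A3-KAW cells, read out with a cell viability assay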
Description: SANGER: Inhibition of human A3-KAW cell growth in a cell viability assay.

PSN1 = system: PSN1;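 note: suppression of growth of human PSN1 cells, read out by a cell viability assay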
Description: SANGER: Inhibition of human PSN1 cell growth in a cell viability assay.

TE-5 = system: TE-5;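 note: inhibition of cell growth, read out by a cell viability assay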
Description: SANGER: Inhibition of human TE-5 cell growth in a cell viability assay.

no-10 = system: no-10;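 note: growth inhibition of no-10 cells, read out with a cell viability assay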
Description: SANGER: Inhibition of human no-10 cell growth in a cell viability assay.

BE-13 = system: BE-13;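 note: growth inhibition of human BE-13 cells, measured with a cell viability assay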
Description: SANGER: Inhibition of human BE-13 cell growth in a cell viability assay.

DJM-1 = system: DJM-1;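 note: growth inhibition of human DJM-1 cells, read out by a cell viability assay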
Description: SANGER: Inhibition of human DJM-1 cell growth in a cell viability assay.

HT = system: HT
Description: SANGER: Inhibition of human HT cell growth in a cell viability assay.

NKM-1 = system: NKM-1;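 note: growth inhibition of NKM-1 cells, read out with a cell viability assay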
Description: SANGER: Inhibition of human NKM-1 cell growth in a cell viability assay.

EW-3 = system: EW-3;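 note: cell viability assay read-out, IC50 reflects inhibition of growth of the EW-3 cells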
Description: SANGER: Inhibition of human EW-3 cell growth in a cell viability assay.

ETK-1 = system: ETK-1;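 note: growth inhibition of human ETK-1 cells, read out with a cell viability assay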
Description: SANGER: Inhibition of human ETK-1 cell growth in a cell viability assay.

KGN = system: KGN;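 note: growth inhibition of KGN cells, read out with a cell viability assay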
Description: SANGER: Inhibition of human KGN cell growth in a cell viability assay.

LB2241-RCC = system: LB2241-RCC;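 note: cell viability assay measuring how strongly the cultured human renal carcinoma line is prevented from growing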
Description: SANGER: Inhibition of human LB2241-RCC cell growth in a cell viability assay.

IST-MEL1 = system: IST-MEL1;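 note: growth inhibition of the cell line, read out with a cell viability assay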
Description: SANGER: Inhibition of human IST-MEL1 cell growth in a cell viability assay.

TE-8 = system: TE-8;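 note: growth inhibition of TE-8 cells, measured with a cell viability readout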
Description: SANGER: Inhibition of human TE-8 cell growth in a cell viability assay.

TE-1 = system: TE-1;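 note: growth inhibition of the human TE-1 cell line, read out with a cell viability assay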
Description: SANGER: Inhibition of human TE-1 cell growth in a cell viability assay.

HAL-01 = system: HAL-01;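 note: growth inhibition of human HAL-01 cells, read out with a cell viability assay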
Description: SANGER: Inhibition of human HAL-01 cell growth in a cell viability assay.

NOMO-1 = system: NOMO-1;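 note: growth inhibition of human NOMO-1 cells measured by a cell viability assay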
Description: SANGER: Inhibition of human NOMO-1 cell growth in a cell viability assay.

VA-ES-BJ = system: VA-ES-BJ;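 note: growth inhibition of the VA-ES-BJ cell line, read out by a cell viability assay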
Description: SANGER: Inhibition of human VA-ES-BJ cell growth in a cell viability assay.

COLO-800 = system: COLO-800;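 note: growth inhibition of COLO-800 cells, read out with a cell viability assay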
Description: SANGER: Inhibition of human COLO-800 cell growth in a cell viability assay.

NCI-H82 = system: NCI-H82;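 note: growth inhibition of NCI-H82 cells, measured with a cell viability readout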
Description: SANGER: Inhibition of human NCI-H82 cell growth in a cell viability assay.

SCH = system: SCH;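 note: growth inhibition of human SCH cells, read out in a cell viability assay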
Description: SANGER: Inhibition of human SCH cell growth in a cell viability assay.

ACN = system: ACN;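 note: growth inhibition of the human ACN cell line, read out via cell viability testing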
Description: SANGER: Inhibition of human ACN cell growth in a cell viability assay.

DMS-79 = system: DMS-79;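 note: growth inhibition measured with a cell viability assay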
Description: SANGER: Inhibition of human DMS-79 cell growth in a cell viability assay.

NCI-H446 = system: NCI-H446;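 note: growth inhibition of NCI-H446 cells determined by a cell viability assay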
Description: SANGER: Inhibition of human NCI-H446 cell growth in a cell viability assay.

RXF 393 = system: RXF 393;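 note: growth inhibition of human RXF 393 cells, read out with a cell viability assay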
Description: SANGER: Inhibition of human RXF393 cell growth in a cell viability assay.

NCI-H69 = system: NCI-H69;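 note: growth inhibition of the cell line, read out with a cell viability assay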
Description: SANGER: Inhibition of human NCI-H69 cell growth in a cell viability assay.

KARPAS-299 = system: KARPAS-299
Description: SANGER: Inhibition of human KARPAS-299 cell growth in a cell viability assay.

SW872 = system: SW872;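 note: growth inhibition of SW872 cells, read out by a viability assay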
Description: SANGER: Inhibition of human SW872 cell growth in a cell viability assay.

ES5 = system: ES5;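 note: growth inhibition of human ES5 cells, read out by a cell viability assay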
Description: SANGER: Inhibition of human ES5 cell growth in a cell viability assay.

DU-4475 = system: DU-4475
Description: SANGER: Inhibition of human DU-4475 cell growth in a cell viability assay.

NB6 = system: NB6;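 note: growth inhibition of NB6 cells, read out by a cell viability assay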
Description: SANGER: Inhibition of human NB6 cell growth in a cell viability assay.

LS-513 = system: LS-513
Description: SANGER: Inhibition of human LS-513 cell growth in a cell viability assay.

TE-9 = system: TE-9;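 note: cell growth inhibition, measured with a cell viability readout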
Description: SANGER: Inhibition of human TE-9 cell growth in a cell viability assay.

LC-2-ad = system: LC-2-ad;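 note: growth inhibition of human LC-2-ad cells, read out with a cell viability assay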
Description: SANGER: Inhibition of human LC-2-ad cell growth in a cell viability assay.

LU-139 = system: LU-139
Description: SANGER: Inhibition of human LU-139 cell growth in a cell viability assay.

D-502MG = system: D-502MG
Description: SANGER: Inhibition of human D-502MG cell growth in a cell viability assay.

OS-RC-2 = system: OS-RC-2;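 note: growth inhibition of human OS-RC-2 cells, measured by a cell viability assay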
Description: SANGER: Inhibition of human OS-RC-2 cell growth in a cell viability assay.

LB771-HNC = system: LB771-HNC;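 note: growth inhibition of LB771-HNC human cells, read out with a cell viability assay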
Description: SANGER: Inhibition of human LB771-HNC cell growth in a cell viability assay.

MPP-89 = system: MPP-89;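 note: growth inhibition of human MPP-89 cells, read out with a cell viability assay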
Description: SANGER: Inhibition of human MPP-89 cell growth in a cell viability assay.

ES7 = system: ES7;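 note: growth inhibition of cultured human ES7 cells, read out as cell viability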
Description: SANGER: Inhibition of human ES7 cell growth in a cell viability assay.

TE-11 = system: TE-11
Description: SANGER: Inhibition of human TE-11 cell growth in a cell viability assay.

A4-Fuk = system: A4-Fuk
Description: SANGER: Inhibition of human A4-Fuk cell growth in a cell viability assay.

KG-1 = system: KG-1
Description: SANGER: Inhibition of human KG-1 cell growth in a cell viability assay.

Measured: IC50

C[C@]12O[C@H](C[C@]1(O)CO)n1c3ccccc3c3c4c(c5c6ccccc6n2c5c31)CNC4=O [LESTAURTINIB]
0.513 µM: NCI-H510A
1.91 µM: NCI-H446
0.659 µM: DJM-1
0.936 µM: NB6
0.196 µM: IST-MEL1
0.0473 µM: NKM-1
0.291 µM: SW 954
1.16 µM: COLO-829
0.409 µM: KG-1
0.257 µM: LC-2-ad
0.306 µM: HAL-01
0.0239 µM: A3-KAW
1.02 µM: LXF-289 cell line
0.667 µM: TE-8
0.0777 µM: ACN
0.0948 µM: ES7
0.231 µM: PSN1
0.0165 µM: ES5
0.28 µM: BE-13
0.917 µM: RXF 393
1.25 µM: LS-513
0.125 µM: EW-3 | LB2241-RCC
0.189 µM: CTV-1
1.92 µM: SW684
0.949 µM: NOS-1
0.566 µM: OS-RC-2
0.354 µM: SK-UT-1
0.0827 µM: A4-Fuk
0.389 µM: VA-ES-BJ
0.19 µM: COLO-800
1.04 µM: MPP-89
0.856 µM: ETK-1
1.64 µM: BB49-HNC
0.609 µM: TE-11
0.0978 µM: DU-4475
0.553 µM: TE-1
0.415 µM: TE-9
0.298 µM: LOX IMVI
0.411 µM: D-502MG
0.149 µM: NOMO-1
0.497 µM: CTB-1
0.369 µM: BV-173
0.138 µM: KGN
0.333 µM: MFM-223
1.13 µM: HT
0.0266 µM: SK-MEL-2
> 2 µM: all other assays above

N#C/C(=C1/Nc2ccccc2S1)c1ccnc(NCCc2cccnc2)n1
5.85 µM: KGN
2.85 µM: CTV-1
2.91 µM: TE-8
1.39 µM: BB49-HNC
5.2 µM: MPP-89
7.5 µM: SK-UT-1
3.03 µM: ES7
5.95 µM: NOS-1
6.6 µM: ES5
0.3 µM: TE-11
2.31 µM: NKM-1
6.49 µM: TE-9
1.32 µM: SW872
> 8 µM: all other assays above

Cn1cc(/C=C2\C(=O)Nc3cccnc32)c2ccccc21
0.865 µM: ACN
> 2 µM: all other assays above

O=c1[nH]c2ccccc2n1C1CCN(Cc2ccc(-c3nc4cc5[nH]cnc5cc4nc3-c3ccccc3)cc2)CC1
1.86 µM: A4-Fuk
1.37 µM: NOS-1
1.35 µM: SK-UT-1 | ES7
1.76 µM: LXF-289 cell line
> 2.56 µM: all other assays above
